{"source": "paper PMC7795354", "about": "“Development of Radiogallium-Labeled Peptides for Platelet-Derived Growth Factor Receptor β (PDGFRβ) Imaging: Influence of Different Linkers” (Molecules, 2020)", "key": {"[1]": {"assay": "Biodistribution in BxPC3-luc tumor-bearing mice", "assay_type": "in vivo, BALB/c nu/nu mice", "conditions": "female, BALB/c nu/nu, iv, total radioactivity", "procedure": "(§1) All animal handling procedures were approved by the Kanazawa University Animal Care Committee. Experiments with animals were conducted in accordance with the Guidelines for the Care and Use of Laboratory Animals of Kanazawa University. The animals were housed with free access to food and water at 23 °C with a 12 h light/dark schedule. Four-week-old female BALB/c nu/nu mice (12–17 g) were purchased from Japan SLC Inc. (Hamamatsu, Japan). The tumor-bearing model was prepared by subcutaneous inoculation of 1 × 10^7 BxPC3-luc cells into left shoulder of female BALB/c nu/nu mice. The biodistribution experiment was performed approximately 4–5 weeks post-inoculation.\n(§2) A saline solution of [^67Ga]27 or [^67Ga]28 (74 kBq, 100 µL) was injected intravenously into the tail vein of the mice. The mice were sacrificed at 10 min post-injection for [^67Ga]27 and 1 h post-injection for [^67Ga]27 or [^67Ga]28. For in vivo blocking studies, 100 μL of a mixed saline solution of [^67Ga]27 (74 kBq) and IPLPPPRRPFFK peptide (1 mg/mouse) was injected via tile vein into the tumor-bearing mice. The mice were sacrificed at 1 h post-injection. Tissues of interest were removed and weighed. The radioactivity of the tissues was determined using an auto well gamma counter, and counts were corrected for background radiation and physical decay during counting. The data were expressed as percent injected dose per gram tissue (%ID/g)."}, "[2]": {"test_system": "BxPC3-luc tumor-bearing mice", "assay": "Biodistribution in BxPC3-luc tumor-bearing mice", "assay_type": "in vivo, BALB/c nu/nu mice", "procedure": "as §1, §2"}, "[3]": {"assay": "Biodistribution in BxPC3-luc tumor-bearing mice", "assay_type": "in vivo", "conditions": "female, BALB/c nu/nu, mouse, stomach, iv, 74 kBq, total radioactivity; 1 h post-injection"}, "[4]": {"assay": "In vitro stability in PBS pH 7.4", "conditions": "37 °C, 0.1 M PBS pH 7.4", "experimental": "(§3) Briefly, the solution of radiotracers (37 kBq/well, 50 µL) in a sealed tube containing 0.1 M PBS pH 7.4 (450 µL) was incubated at 37 °C for 24 h. At 3 and 24 h after incubation, the purity of radiotracers was analyzed by RP-HPLC. Meanwhile, for stability assay in murine plasma, radiotracers were mixed in murine plasma at a ratio of 1:10. After incubation at 37 °C for 10 min and 1 h, an equivalent amount of ice-cold acetonitrile was added. After centrifugation at 1000× g at 4 °C for 10 min, the supernatant was filtered through a 0.45-µm filter followed by analyzing using RP-HPLC as described above. Then, the radiochemical purities were determined."}, "[5]": {"assay": "In vitro stability in murine plasma", "conditions": "37 °C", "experimental": "as §3"}, "[6]": {"assay": "Octanol-water partition coefficient (log P), shake-flask", "conditions": "n-octanol/PBS, pH 7.4", "experimental": "The octanol-water partition coefficients for radiotracers were determined via the assessment of their distribution in n-octanol and PBS (pH 7.4) using shake-flask method as described previously [48]. Radioactivity of each layer was measured using auto well gamma counter (n = 4)."}}, "note": "“And” between values parts separate entries of the source, which are not always exact repeats. Equal values may be shown once. Read-outs that look alike come from different tables or passages of the source. Where a SMILES comes first, the peptide text is derived from it. The star is where a group is joined. DOTA = O=C(O)CN1CCN(CC(=O)O)CCN(CC(=O)*)CCN(CC(=O)O)CC1; AEEA = NCCOCCOCC(=O)O", "data": [{"smiles": "CC[C@H](C)[C@H](NC(=O)COCCOCCNC(=O)CN1CCN(CC(=O)O)CCN(CC(=O)O)CCN(CC(=O)O)CC1)C(=O)N1CCC[C@H]1C(=O)N[C@@H](CC(C)C)C(=O)N1CCC[C@H]1C(=O)N1CCC[C@H]1C(=O)N1CCC[C@H]1C(=O)N[C@@H](CCCNC(=N)N)C(=O)N[C@@H](CCCNC(=N)N)C(=O)N1CCC[C@H]1C(=O)N[C@@H](Cc1ccccc1)C(=O)N[C@@H](Cc1ccccc1)C(=O)N[C@@H](CCCCN)C(=O)O", "note": "[[^67Ga]27, [^67Ga]Ga-DOTA-EG2-IPLPPPRRPFFK, metal not drawn] ({DOTA-AEEA}-IPLPPPRRPFFK-OH)", "values": [{"measurement": "tissue uptake at 1 h", "setting": "[1]; blood, 1 h, blocking: co-injection of IPLPPPRRPFFK 1 mg/mouse, read-out: Biodistribution, Blood", "result": 0.93, "unit": "%ID/g"}, {"measurement": "tissue uptake at 1 h", "setting": "[1]; bone, 1 h, blocking: co-injection of IPLPPPRRPFFK 1 mg/mouse, read-out: Biodistribution, Bone", "result": 0.21, "unit": "%ID/g"}, {"measurement": "tissue uptake at 1 h", "setting": "[1]; brain, 1 h, blocking: co-injection of IPLPPPRRPFFK 1 mg/mouse, read-out: Biodistribution, Brain", "result": 0.02, "unit": "%ID/g"}, {"measurement": "tissue uptake at 1 h", "setting": "[1]; heart, 1 h, blocking: co-injection of IPLPPPRRPFFK 1 mg/mouse, read-out: Biodistribution, Heart", "result": 0.28, "unit": "%ID/g"}, {"measurement": "tissue uptake at 1 h", "setting": "[1]; 1 h, blocking: co-injection of IPLPPPRRPFFK 1 mg/mouse, BxPC3-luc tumor, read-out: Biodistribution, Tumor", "result": 0.96, "unit": "%ID/g"}, {"measurement": "tissue uptake at 1 h", "setting": "[1]; kidney, 1 h, blocking: co-injection of IPLPPPRRPFFK 1 mg/mouse, read-out: Biodistribution, Kidney", "result": 12.2, "unit": "%ID/g"}, {"measurement": "tissue uptake at 1 h", "setting": "[1]; large intestine, 1 h, blocking: co-injection of IPLPPPRRPFFK 1 mg/mouse, read-out: Biodistribution, Large intestine", "result": 0.25, "unit": "%ID/g"}, {"measurement": "tissue uptake at 1 h", "setting": "[1]; liver, 1 h, blocking: co-injection of IPLPPPRRPFFK 1 mg/mouse, read-out: Biodistribution, Liver", "result": 0.27, "unit": "%ID/g"}, {"measurement": "tissue uptake at 1 h", "setting": "[1]; lung, 1 h, blocking: co-injection of IPLPPPRRPFFK 1 mg/mouse, read-out: Biodistribution, Lung", "result": 0.66, "unit": "%ID/g"}, {"measurement": "tissue uptake at 10 min", "setting": "[1]; mouse, blood, 74 kBq, 10 min post-injection, i.v., read-out: Biodistribution, Blood", "result": 3.87, "unit": "%ID/g"}, {"measurement": "tissue uptake at 1 h", "setting": "[1]; mouse, blood, 74 kBq, 1 h post-injection, i.v., read-out: Biodistribution, Blood", "result": 0.15, "unit": "%ID/g"}, {"measurement": "tissue uptake at 10 min", "setting": "[1]; mouse, bone, 74 kBq, 10 min post-injection, i.v., read-out: Biodistribution, Bone", "result": 1.62, "unit": "%ID/g"}, {"measurement": "tissue uptake at 1 h", "setting": "[1]; mouse, bone, 74 kBq, 1 h post-injection, i.v., read-out: Biodistribution, Bone", "result": 0.24, "unit": "%ID/g"}, {"measurement": "tissue uptake at 10 min", "setting": "[1]; mouse, brain, 74 kBq, 10 min post-injection, i.v., read-out: Biodistribution, Brain", "result": 0.13, "unit": "%ID/g"}, {"measurement": "tissue uptake at 1 h", "setting": "[1]; mouse, brain, 74 kBq, 1 h post-injection, i.v., read-out: Biodistribution, Brain", "result": 0.01, "unit": "%ID/g"}, {"measurement": "tissue uptake at 10 min", "setting": "[1]; mouse, heart, 74 kBq, 10 min post-injection, i.v., read-out: Biodistribution, Heart", "result": 1.47, "unit": "%ID/g"}, {"measurement": "tissue uptake at 1 h", "setting": "[1]; mouse, heart, 74 kBq, 1 h post-injection, i.v., read-out: Biodistribution, Heart", "result": 0.07, "unit": "%ID/g"}, {"measurement": "tissue uptake at 10 min", "setting": "[1]; mouse, 74 kBq, 10 min post-injection, i.v., BxPC3-luc tumor, read-out: Biodistribution, Tumor", "result": 3.11, "unit": "%ID/g"}, {"measurement": "tissue uptake at 1 h", "setting": "[1]; mouse, 74 kBq, 1 h post-injection, i.v., BxPC3-luc tumor, read-out: Biodistribution, Tumor", "result": 0.39, "unit": "%ID/g"}, {"measurement": "tissue uptake at 10 min", "setting": "[1]; mouse, kidney, 74 kBq, 10 min post-injection, i.v., read-out: Biodistribution, Kidney", "result": 13.9, "unit": "%ID/g"}, {"measurement": "tissue uptake at 1 h", "setting": "[1]; mouse, kidney, 74 kBq, 1 h post-injection, i.v., read-out: Biodistribution, Kidney", "result": 3.07, "unit": "%ID/g"}, {"measurement": "tissue uptake at 10 min", "setting": "[1]; mouse, large intestine, 74 kBq, 10 min post-injection, i.v., read-out: Biodistribution, Large intestine", "result": 0.87, "unit": "%ID/g"}, {"measurement": "tissue uptake at 1 h", "setting": "[1]; mouse, large intestine, 74 kBq, 1 h post-injection, i.v., read-out: Biodistribution, Large intestine", "result": 0.13, "unit": "%ID/g"}, {"measurement": "tissue uptake at 10 min", "setting": "[1]; mouse, liver, 74 kBq, 10 min post-injection, i.v., read-out: Biodistribution, Liver", "result": 0.9, "unit": "%ID/g"}, {"measurement": "tissue uptake at 1 h", "setting": "[1]; mouse, liver, 74 kBq, 1 h post-injection, i.v., read-out: Biodistribution, Liver", "result": 0.22, "unit": "%ID/g"}, {"measurement": "tissue uptake at 10 min", "setting": "[1]; mouse, lung, 74 kBq, 10 min post-injection, i.v., read-out: Biodistribution, Lung", "result": 3.7, "unit": "%ID/g"}, {"measurement": "tissue uptake at 1 h", "setting": "[1]; mouse, lung, 74 kBq, 1 h post-injection, i.v., read-out: Biodistribution, Lung", "result": 0.46, "unit": "%ID/g"}, {"measurement": "tissue uptake at 10 min", "setting": "[1]; mouse, muscle, 74 kBq, 10 min post-injection, i.v., read-out: Biodistribution, Muscle", "result": 0.86, "unit": "%ID/g"}, {"measurement": "tissue uptake at 1 h", "setting": "[1]; mouse, muscle, 74 kBq, 1 h post-injection, i.v., read-out: Biodistribution, Muscle", "result": 0.07, "unit": "%ID/g"}, {"measurement": "tissue uptake at 10 min", "setting": "[1]; mouse, pancreas, 74 kBq, 10 min post-injection, i.v., read-out: Biodistribution, Pancreas", "result": 0.89, "unit": "%ID/g"}, {"measurement": "tissue uptake at 1 h", "setting": "[1]; mouse, pancreas, 74 kBq, 1 h post-injection, i.v., read-out: Biodistribution, Pancreas", "result": 0.13, "unit": "%ID/g"}, {"measurement": "tissue uptake at 10 min", "setting": "[1]; mouse, small intestine, 74 kBq, 10 min post-injection, i.v., read-out: Biodistribution, Small intestine", "result": 1.16, "unit": "%ID/g"}, {"measurement": "tissue uptake at 1 h", "setting": "[1]; mouse, small intestine, 74 kBq, 1 h post-injection, i.v., read-out: Biodistribution, Small intestine", "result": 0.63, "unit": "%ID/g"}, {"measurement": "tissue uptake at 10 min", "setting": "[1]; mouse, spleen, 74 kBq, 10 min post-injection, i.v., read-out: Biodistribution, Spleen", "result": 0.99, "unit": "%ID/g"}, {"measurement": "tissue uptake at 1 h", "setting": "[1]; mouse, spleen, 74 kBq, 1 h post-injection, i.v., read-out: Biodistribution, Spleen", "result": 0.13, "unit": "%ID/g"}, {"measurement": "tissue uptake dose at 10 min", "setting": "[1]; mouse, stomach, 74 kBq, 10 min post-injection", "result": 0.19, "unit": "%ID"}, {"measurement": "tissue to tissue ratio at 10 min", "setting": "[1]; mouse, tumor/blood, 74 kBq, 10 min post-injection", "result": 0.81}, {"measurement": "tissue to tissue ratio at 1 h", "setting": "[1]; mouse, tumor/blood, 74 kBq, 1 h post-injection", "result": 2.61}, {"measurement": "tissue uptake at 1 h", "setting": "[1]; muscle, 1 h, blocking: co-injection of IPLPPPRRPFFK 1 mg/mouse, read-out: Biodistribution, Muscle", "result": 0.22, "unit": "%ID/g"}, {"measurement": "tissue uptake at 1 h", "setting": "[1]; pancreas, 1 h, blocking: co-injection of IPLPPPRRPFFK 1 mg/mouse, read-out: Biodistribution, Pancreas", "result": 0.21, "unit": "%ID/g"}, {"measurement": "tissue uptake at 1 h", "setting": "[1]; small intestine, 1 h, blocking: co-injection of IPLPPPRRPFFK 1 mg/mouse, read-out: Biodistribution, Small intestine", "result": 0.66, "unit": "%ID/g"}, {"measurement": "tissue uptake at 1 h", "setting": "[1]; spleen, 1 h, blocking: co-injection of IPLPPPRRPFFK 1 mg/mouse, read-out: Biodistribution, Spleen", "result": 0.29, "unit": "%ID/g"}, {"measurement": "tissue uptake dose at 1 h", "setting": "[1]; stomach, 1 h, blocking: co-injection of IPLPPPRRPFFK 1 mg/mouse", "result": 0.05, "unit": "%ID"}, {"measurement": "tissue to tissue ratio at 1 h", "setting": "[1]; tumor/blood, 1 h, blocking: co-injection of IPLPPPRRPFFK 1 mg/mouse", "result": 1.19}, {"measurement": "Tumor/Blood ratio", "setting": "[2]; 1 h, blocking: co-injection of IPLPPPRRPFFK 1 mg/mouse", "result": "significantly decreased"}, {"measurement": "Tumor/Blood ratio", "setting": "[2]; 1 h post-injection, i.v.", "result": "2.61 and 2.61 ± 0.75"}, {"measurement": "tissue uptake dose at 1 h", "setting": "[3]", "result": 0.06, "unit": "%ID"}, {"measurement": "In vitro stability in PBS pH 7.4, percentage of remained intact radiotracer", "setting": "[4]; 3 h", "result": "96.9 ± 0.5", "unit": "%"}, {"measurement": "In vitro stability in PBS pH 7.4, percentage of remained intact radiotracer", "setting": "[4]; 24 h", "result": "95.6 ± 0.4", "unit": "%"}, {"measurement": "In vitro stability in murine plasma, percentage of remained intact radiotracer", "setting": "[5]; 1 h, 60 min", "result": "75.9 ± 1.2", "unit": "%"}, {"measurement": "remaining at 10 min", "setting": "[5]; mouse, plasma, In vitro stability in murine plasma, percentage of remained intact radiotracer, 10 min", "result": "84.4 ± 2", "unit": "%"}, {"measurement": "remaining at 1 h", "setting": "[5]; mouse, plasma, In vitro stability in murine plasma, percentage of remained intact radiotracer, 1 h", "result": "> 75", "unit": "%"}, {"measurement": "logP", "setting": "[6]", "result": "< -4"}]}]}
